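Each compound was tested at five concentrations against cells in 96-well plates for 48 hours. GI50 marks 50% less growth. TGI: concentration producing complete growth inhibition.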
What was measured:
Assay in all cases: NCI tumour cell line growth inhibition, 48 h
786-0 renal = system: 786-0 renal
A498 renal = system: A498 renal
A549 NSCLC = system: A549 NSCLC
ACHN renal = system: ACHN renal
BT-549 breast = system: BT-549 breast
CAKI-1 renal = system: CAKI-1 renal
CCRF-CEM leukemia = system: CCRF-CEM leukemia
COLO 205 colon = system: COLO 205 colon
DU-145 prostate = system: DU-145 prostate
EKVX NSCLC = system: EKVX NSCLC
HCC-2998 colon = system: HCC-2998 colon
HCT-116 colon = system: HCT-116 colon
HCT-15 colon = system: HCT-15 colon
HL-60(TB) leukemia = system: HL-60(TB) leukemia
HOP-62 NSCLC = system: HOP-62 NSCLC
HOP-92 NSCLC = system: HOP-92 NSCLC
HS 578T breast = system: HS 578T breast
HT29 colon = system: HT29 colon
IGROV1 ovarian = system: IGROV1 ovarian
K-562 leukemia = system: K-562 leukemia
KM12 colon = system: KM12 colon
LOX IMVI melanoma = system: LOX IMVI melanoma
M14 melanoma = system: M14 melanoma
MALME-3M melanoma = system: MALME-3M melanoma
MCF7 breast = system: MCF7 breast
MDA-MB-231 breast = system: MDA-MB-231 breast
MDA-MB-435 = system: MDA-MB-435
MOLT-4 leukemia = system: MOLT-4 leukemia
NCI-H226 lung = system: NCI-H226 lung

SMILES: CN1CCN(C(=O)[C@@]2(C)CC[C@]3(C)CC[C@]4(C)C(=CC[C@@H]5[C@@]6(C)CCC(=O)NC(C)(C)[C@@H]6CC[C@]54C)[C@@H]3C2)CC1
- GI50 (786-0 renal): 1580 nM
- TGI (786-0 renal): 2980 nM
- GI50 (A498 renal): 2680 nM
- TGI (A498 renal): 12100 nM
- GI50 (A549 NSCLC): 2020 nM
- TGI (A549 NSCLC): 5280 nM
- GI50 (ACHN renal): 1990 nM
- TGI (ACHN renal): 4110 nM
- GI50 (BT-549 breast): 1580 nM
- TGI (BT-549 breast): 3280 nM
- GI50 (CAKI-1 renal): 2360 nM
- TGI (CAKI-1 renal): 6480 nM
- GI50 (CCRF-CEM leukemia): 1580 nM
- TGI (CCRF-CEM leukemia): 4430 nM
- GI50 (COLO 205 colon): 1540 nM
- TGI (COLO 205 colon): 3180 nM
- GI50 (DU-145 prostate): 3440 nM
- TGI (DU-145 prostate): 12100 nM
- GI50 (EKVX NSCLC): 2740 nM
- TGI (EKVX NSCLC): 12800 nM
- GI50 (HCC-2998 colon): 1510 nM
- TGI (HCC-2998 colon): 3040 nM
- GI50 (HCT-116 colon): 1130 nM
- TGI (HCT-116 colon): 2450 nM
- GI50 (HCT-15 colon): 1200 nM
- TGI (HCT-15 colon): 2960 nM
- GI50 (HL-60(TB) leukemia): 1870 nM
- TGI (HL-60(TB) leukemia): 3870 nM
- GI50 (HOP-62 NSCLC): 1560 nM
- TGI (HOP-62 NSCLC): 3130 nM
- GI50 (HOP-92 NSCLC): 1050 nM
- TGI (HOP-92 NSCLC): 3890 nM
- GI50 (HS 578T breast): 2060 nM
- TGI (HS 578T breast): 6780 nM
- GI50 (HT29 colon): 1500 nM
- TGI (HT29 colon): 3350 nM
- GI50 (IGROV1 ovarian): 1770 nM
- TGI (IGROV1 ovarian): 3770 nM
- GI50 (K-562 leukemia): 1070 nM
- TGI (K-562 leukemia): 3020 nM
- GI50 (KM12 colon): 1560 nM
- TGI (KM12 colon): 3130 nM
- GI50 (LOX IMVI melanoma): 1460 nM
- TGI (LOX IMVI melanoma): 2840 nM
- GI50 (M14 melanoma): 1690 nM
- TGI (M14 melanoma): 3380 nM
- GI50 (MALME-3M melanoma): 1450 nM
- TGI (MALME-3M melanoma): 2820 nM
- GI50 (MCF7 breast): 1830 nM
- TGI (MCF7 breast): 4170 nM
- GI50 (MDA-MB-231 breast): 1700 nM
- TGI (MDA-MB-231 breast): 3470 nM
- GI50 (MDA-MB-435): 1620 nM
- TGI (MDA-MB-435): 3300 nM
- GI50 (MOLT-4 leukemia): 1520 nM
- TGI (MOLT-4 leukemia): 3660 nM
- GI50 (NCI-H226 lung): 4140 nM
- TGI (NCI-H226 lung): 21400 nM
